Results as given in article PMC4393326, “The natural product brartemicin is a high affinity ligand for the carbohydrate-recognition domain of the macrophage receptor mincle” (Medchemcomm, 2015).

How the values were obtained:
CRD of human mincle = biological target: T1, CRD of human mincle (Homo sapiens, UniProt Q9ULY5); test: Competition binding assay with immobilized CRD of human mincle; conditions: Fig. S1
T1 construct: made in house; host or cells: bacterial expression system (analogous to the bovine one)
T1 sequence (Q9ULY5 87-206 limits assumed): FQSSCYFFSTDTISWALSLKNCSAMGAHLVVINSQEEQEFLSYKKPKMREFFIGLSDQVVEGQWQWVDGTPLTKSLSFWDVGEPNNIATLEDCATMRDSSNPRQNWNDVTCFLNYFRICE
Protocol: (§1) A biotin-tagged version of the CRD from bovine mincle was prepared in a bacterial expression system as previously described.[8] An equivalent fragment of human mincle was generated using an analogous system.[9] Binding competition assays, based on inhibition of binding of radioiodinated Man31-bovine serum albumin to the biotin-tagged CRDs immobilized on streptavidin-coated plates, were performed as previously described.[8] Results are reported as average ± standard deviation for at least 3 independent experiments, each performed in duplicate.

CRD from bovine mincle = biological target: T2, CRD from bovine mincle (Bos taurus, UniProt E1BHM0); test: Competition binding assay: inhibition of radioiodinated Man31-bovine serum albumin binding to immobilized biotin-tagged CRD; conditions: for Ki: inhibition of mannose-conjugated serum albumin binding to bovine mincle CRD, average ± s.d. for three independent experiments; for Reduction in binding affinity compared to brartemicin / Rel. affinity (affinity relative to α,α-trehalose): bovine mincle CRD; for Rel. affinity (affinity relative to α,α-trehalose): α,α-trehalose = 1
T2 construct: A biotin-tagged version of the CRD from bovine mincle was prepared in a bacterial expression system; made in house; host or cells: bacterial expression system
T2 sequence (E1BHM0 78-211 limits assumed): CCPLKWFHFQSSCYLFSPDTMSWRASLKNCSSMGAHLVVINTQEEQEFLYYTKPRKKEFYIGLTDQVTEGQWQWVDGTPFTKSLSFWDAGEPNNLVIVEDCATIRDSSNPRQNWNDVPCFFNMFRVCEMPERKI
Protocol: The collection of compounds was tested in competition binding experiments with immobilized bovine mincle CRD[8] (Fig. 3a).
Fig. 3 a) Data for inhibition of mannose-conjugated serum albumin binding to the CRD from bovine mincle by brartemicin and analogs. K I-values (average ± s.d. for three independent experiments) and affinities relative to α,α-trehalose. b) Top view and c) side view of highest scoring docking pose of brartemicin with bovine mincle. The Ca^2+ is coloured magenta. TEXT PRINTED IN THE PICTURE: (a) brartemicin: Ki (μM): 5.5 ± 0.9; Rel. affinity: 290 | (a) 2: Ki (μM): 5.4 ± 0.3; Rel. affinity: 300 | (a) 3: Ki (μM): 11.3 ± 0.9; Rel. affinity: 140 | (a) 4: Ki (μM): 164 ± 13; Rel. affinity: 9.8 | (a) epi-brartemicin: Ki (μM): 440 ± 70; Rel. affinity: 3.6 | (a) α,α-trehalose: Ki (μM): 1620 ± 70; Rel. affinity: 1
as §1

[1] = Solubility in aqueous media; format: physicochemical
cancer cells = conditions: cited from earlier work

Row | SMILES | Binding to CRD of human mincle (CRD of human mincle) | Ki (CRD from bovine mincle) [µM] | Solubility in aqueous media [1] | Block of matrigel-invasion of cancer cells (cancer cells) | Reduction in binding affinity compared to brartemicin (CRD from bovine mincle) | Rel. affinity (affinity relative to α,α-trehalose) (CRD from bovine mincle) [fold] | Anti-invasive activity on cancer cells (cancer cells)
1 | Cc1cc(O)cc(O)c1C(=O)OC[C@H]1O[C@H](O[C@H]2O[C@H](COC(=O)c3c(C)cc(O)cc3O)[C@@H](O)[C@H](O)[C@H]2O)[C@H](O)[C@@H](O)[C@@H]1O [brartemicin, 6,6′-Bis-(2,4-dihydroxy-6-methylbenzoate)-α,α-trehalose] | binds with high affinity | 5.5 ± 0.9 | soluble at millimolar concentrations | block matrigel-invasion of cancer cells |  |  | 
2 | COc1cccc(C(=O)OC[C@H]2O[C@H](O[C@H]3O[C@H](COC(=O)c4cccc(OC)c4OC)[C@@H](O)[C@H](O)[C@H]3O)[C@H](O)[C@@H](O)[C@@H]2O)c1OC [compound 2] |  | 5.4 ± 0.3 |  |  | equipotent | 300 | in the same range as brartemicin
3 | O=C(OC[C@H]1O[C@H](O[C@H]2O[C@H](COC(=O)c3ccccc3)[C@@H](O)[C@H](O)[C@H]2O)[C@H](O)[C@@H](O)[C@@H]1O)c1ccccc1 [compound 3] |  | 11.3 ± 0.9 |  |  | two-fold | 140 | in the same range as brartemicin
4 | Cc1cc(O)cc(O)c1C(=O)OC[C@H]1O[C@H](O[C@H]2O[C@H](CO)[C@@H](O)[C@H](O)[C@H]2O)[C@H](O)[C@@H](O)[C@@H]1O [compound 4] |  | 164 ± 13 |  |  | roughly 30 fold | 9.8 | 
5 | Cc1cc(O)cc(O)c1C(=O)OC[C@H]1O[C@@H](O[C@H]2O[C@H](COC(=O)c3c(C)cc(O)cc3O)[C@@H](O)[C@H](O)[C@H]2O)[C@H](O)[C@@H](O)[C@@H]1O [epi-brartemicin, 6,6′-Bis-(2,4-dihydroxy-6-methylbenzoate)-α,β-trehalose] |  | 440 ± 70 |  |  | ~100 fold | 3.6 | 
6 | OC[C@H]1O[C@H](O[C@H]2O[C@H](CO)[C@@H](O)[C@H](O)[C@H]2O)[C@H](O)[C@@H](O)[C@@H]1O [α,α-trehalose, reference compound] |  | 1620 ± 70 |  |  |  | 1 | 
